Measured values taken from patent US11447503B2, “Pyridine carbamates and their use as GLUN2B receptor modulators” (JANSSEN PHARMACEUTICA NV, priority 2019, dated 2022).

These molecules were tested against human GluN1/GluN2B NMDA receptors (Homo sapiens, UniProt Q05586+Q13224) (assay: Cell-based calcium flux (FLIPR) assay on cloned human GluN1/GluN2B ion channels expressed in mammalian cells). Settings: standard assay; glutamate ~EC40, 10 μM glycine; stable Tet-On cell line.
Experimental: 5.3. Biological Assays: Effect of Compounds of Formula (I) on Cloned Human GluN1/GluN2B Ion Channels Expressed in Mammalian Cells
NMDA receptors are ion channels that are highly permeable to Ca^2+ ions, rendering it possible to monitor NMDA receptor function using cell-based calcium flux assay. In this assay, co-agonists glutamate and glycine are added to cells heterologously expressing human GluN1/GluN2B NMDA receptors to initiate cellular Ca^2+ influx. The time course of the changes in intracellular calcium is measured using a fluorescent dye and a FLIPR (Fluorometric Imaging Plate Reader) device.
Twenty four hours before measurements, the expression of the NMDA receptors in the stable cell line is induced with Tet-On inducible system in the presence of a non-selective NMDA receptor blocker. On the day of the experiment, cell culture media is carefully washed and the cells are loaded with Calcium 5 Dye Kit (Molecular Devices) in dye loading buffer containing 137 mM NaCl, 4 mM KCl, 2 mM CaCl2, 0.5 mM MgCl2 (standard assay) or 1.5 mM MgCl2 (HTS assay), 10 mM HEPES and 5 mM D-glucose; pH 7.4. After 1 h incubation at the room temperature, the dye is washed away with the assay buffer (137 mM NaCl (standard assay) or 150 mM (HTS assay), 4 mM KCl (standard assay) or 3 mM (HTS assay), 2 mM CaCl2, 0.01 mM EDTA, 10 mM HEPES and 5 mM D-glucose; pH 7.4) In the FLIPR TETRA reader, various concentrations of the test compounds are added to the cells for 5 min while fluorescence is monitored to detect potential agonist activity. Next, co-agonists, glutamate and glycine are added for another 5 minutes. The concentration of glutamate corresponding to ˜EC40 (standard assay) or EC40 (HTS assay) is used to maximize the assay's signal window and ability to detect NMDA receptor antagonists and negative allosteric modulators. A saturating concentration (10 μM) of glycine is also present in the assay. A non-selective NMDA receptor antagonist, (+)MK-801 is used as a positive control for antagonist activity. The fluorescent signal in the presence of test compounds is quantified and normalized to the signal defined by the appropriate control wells.

human GluN1/GluN2B NMDA receptors, sequence (Q13224 27-1484, other chains not shown): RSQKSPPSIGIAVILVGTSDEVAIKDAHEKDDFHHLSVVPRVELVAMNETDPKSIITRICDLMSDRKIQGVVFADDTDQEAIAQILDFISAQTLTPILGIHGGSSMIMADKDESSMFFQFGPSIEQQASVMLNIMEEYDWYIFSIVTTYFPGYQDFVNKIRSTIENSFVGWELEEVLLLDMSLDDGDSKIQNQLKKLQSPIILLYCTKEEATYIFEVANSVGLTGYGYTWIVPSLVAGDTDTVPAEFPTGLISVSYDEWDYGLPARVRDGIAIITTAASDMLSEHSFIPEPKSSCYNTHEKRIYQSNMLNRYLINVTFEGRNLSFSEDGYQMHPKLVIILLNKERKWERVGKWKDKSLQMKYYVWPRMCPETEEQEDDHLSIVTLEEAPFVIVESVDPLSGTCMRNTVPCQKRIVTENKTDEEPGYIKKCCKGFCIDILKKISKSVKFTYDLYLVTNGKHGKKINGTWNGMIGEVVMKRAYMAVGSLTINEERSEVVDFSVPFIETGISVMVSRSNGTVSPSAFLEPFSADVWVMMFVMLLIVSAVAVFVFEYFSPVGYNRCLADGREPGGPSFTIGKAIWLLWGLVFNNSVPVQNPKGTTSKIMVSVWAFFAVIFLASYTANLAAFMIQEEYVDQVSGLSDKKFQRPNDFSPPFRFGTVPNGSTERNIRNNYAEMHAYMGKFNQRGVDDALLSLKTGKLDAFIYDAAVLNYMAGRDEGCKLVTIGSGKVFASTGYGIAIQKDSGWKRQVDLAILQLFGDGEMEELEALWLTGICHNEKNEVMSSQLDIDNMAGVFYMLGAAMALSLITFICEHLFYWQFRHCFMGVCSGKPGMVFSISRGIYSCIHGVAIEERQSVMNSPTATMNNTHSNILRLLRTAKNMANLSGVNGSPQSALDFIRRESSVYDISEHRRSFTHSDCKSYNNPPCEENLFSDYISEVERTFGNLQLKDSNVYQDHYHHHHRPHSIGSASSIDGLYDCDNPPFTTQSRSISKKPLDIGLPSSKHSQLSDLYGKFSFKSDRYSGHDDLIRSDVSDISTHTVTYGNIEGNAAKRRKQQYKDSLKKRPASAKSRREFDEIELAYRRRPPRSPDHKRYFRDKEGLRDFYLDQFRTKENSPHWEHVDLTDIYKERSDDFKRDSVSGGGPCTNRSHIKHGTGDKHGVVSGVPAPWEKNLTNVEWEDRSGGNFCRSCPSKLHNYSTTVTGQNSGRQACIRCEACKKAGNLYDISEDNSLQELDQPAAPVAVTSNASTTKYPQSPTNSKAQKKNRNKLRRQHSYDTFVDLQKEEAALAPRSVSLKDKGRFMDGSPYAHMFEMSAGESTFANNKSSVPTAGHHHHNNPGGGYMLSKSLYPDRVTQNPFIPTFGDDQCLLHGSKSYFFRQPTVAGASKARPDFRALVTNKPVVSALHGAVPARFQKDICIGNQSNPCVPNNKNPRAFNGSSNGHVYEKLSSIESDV

SMILES | IC50
Cc1ncc(-c2cccc(OC(F)F)c2)cc1CN1CCCOC1=O [Example 63, 3-[[5-[3-(Difluoromethoxy)phenyl]-2-methyl-3-pyridyl]methyl]-1,3-oxazinan-2-one] | 174 nM
Cc1ncc(-c2cccc(Cl)c2)cc1CN1CCCOC1=O [Example 64, 3-[[5-(3-Chlorophenyl)-2-methyl-3-pyridyl]methyl]-1,3-oxazinan-2-one] | 406 nM
Cc1ncc(-c2ccc(F)c(Cl)c2)cc1CN1CCCOC1=O [Example 65, 3-[[5-(3-Chloro-4-fluoro-phenyl)-2-methyl-3-pyridyl]methyl]-1,3-oxazinan-2-one] | 30 nM
Cc1cc(-c2cnc(C)c(CN3CCCOC3=O)c2)ccc1F [Example 66, 3-[[5-(4-Fluoro-3-methyl-phenyl)-2-methyl-3-pyridyl]methyl]-1,3-oxazinan-2-one] | 23 nM
Cc1ncc(-c2ccc(F)c(F)c2)cc1CN1CCCOC1=O [Example 67, 3-[[5-(3,4-Difluorophenyl)-2-methyl-3-pyridyl]methyl]-1,3-oxazinan-2-one] | 344 nM
Cc1ncc(-c2ccc(F)cc2)cc1CN1CCCOC1=O [Example 68, 3-[[5-(4-Fluorophenyl)-2-methyl-3-pyridyl]methyl]-1,3-oxazinan-2-one] | > 3000 nM
Cc1ncc(-c2cccc(F)c2)cc1CN1CCCOC1=O [Example 69, 3-[[5-(3-Fluorophenyl)-2-methyl-3-pyridyl]methyl]-1,3-oxazinan-2-one] | 3020 nM
Cc1cc(-c2cnc(C)c(CN3CCCOC3=O)c2)cc(F)c1F [Example 70, 3-[[5-(3,4-Difluoro-5-methyl-phenyl)-2-methyl-3-pyridyl]methyl]-1,3-oxazinan-2-one] | 13 nM
Cc1ncc(-c2ccc(F)c(C)c2F)cc1CN1CCCOC1=O [Example 71, 3-[[5-(2,4-Difluoro-3-methyl-phenyl)-2-methyl-3-pyridyl]methyl]-1,3-oxazinan-2-one] | 22 nM
Cc1ncc(-c2ccc(F)cc2F)cc1CN1CCCOC1=O [Example 72, 3-[[5-(2,4-Difluorophenyl)-2-methyl-3-pyridyl]methyl]-1,3-oxazinan-2-one] | 2240 nM
Cc1ncc(-c2ccc(Cl)c(Cl)c2)cc1CN1CCCOC1=O [Example 73, 3-[[5-(3,4-Dichlorophenyl)-2-methyl-3-pyridyl]methyl]-1,3-oxazinan-2-one] | 19 nM
Cc1ncc(-c2cccc(C(F)(F)F)c2)cc1CN1CCCOC1=O [Example 74, 3-[[2-Methyl-5-[3-(Trifluoromethyl)phenyl]-3-pyridyl]methyl]-1,3-oxazinan-2-one] | 50 nM
Cc1ncc(-c2ccc(F)c(C(F)(F)F)c2)cc1CN1CCCOC1=O [Example 75, 3-[[5-[4-Fluoro-3-(trifluoromethyl)phenyl]-2-methyl-3-pyridyl]methyl]-1,3-oxazinan-2-one] | 39 nM
Cc1cc(-c2cnc(C)c(CN3CCOC3=O)c2)ccc1F [Example 76, 3-[[5-(4-Fluoro-3-methyl-phenyl)-2-methyl-3-pyridyl]methyl]oxazolidin-2-one] | 19 nM
Cc1ncc(-c2ccc(F)c(C)c2F)cc1CN1CCOC1=O [Example 77, 3-[[5-(2,4-Difluoro-3-methyl-phenyl)-2-methyl-3-pyridyl]methyl]oxazolidin-2-one] | 13 nM
Cc1ncc(-c2ccc(F)c(C(C)(F)F)c2)cc1CN1CCOC1=O [Example 78, 3-[[5-[3-(1,1-Difluoroethyl)-4-fluoro-phenyl]-2-methyl-3-pyridyl]methyl]oxazolidin-2-one] | 32 nM
Cc1ncc(-c2ccc(F)c(OC(F)F)c2)cc1CN1CCOC1=O [Example 79, 3-[[5-[3-(Difluoromethoxy)-4-fluoro-phenyl]-2-methyl-3-pyridyl]methyl] oxazolidin-2-one] | 10 nM
Cc1ncc(-c2ccc(F)c(OC(F)F)c2)cc1CN1CC2(CC2)OC1=O [Example 84, 5-[[5-[3-(Difluoromethoxy)-4-fluoro-phenyl]-2-methyl-3-pyridyl]methyl]-7-oxa-5-azaspiro[2.4]heptan-6-one] | 52 nM
Cc1ncc(-c2ccc(F)c(OC(F)F)c2)cc1CN1CC2(CCC2)OC1=O [Example 85, 6-[[5-[3-(Difluoromethoxy)-4-fluoro-phenyl]-2-methyl-3-pyridyl]methyl]-8-oxa-6-azaspiro[3.4]octan-7-one] | 107 nM

SMILES | IC50
Cc1ncc(-c2ccc(F)c(OC(F)F)c2)cc1CN1CC(C)(C)OC1=O [Example 87, 3-[[5-[3-(Difluoromethoxy)-4-fluoro-phenyl]-2-methyl-3-pyridyl]methyl]-5,5-dimethyl-oxazolidin-2-one] | 373 nM
Cc1ncc(-c2ccc(F)c(OC(F)F)c2)cc1CN1CCCOC1=O [Example 88, 3-[[5-[3-(Difluoromethoxy)-4-fluoro-phenyl]-2-methyl-3-pyridyl]methyl]-1,3-oxazinan-2-one] | 22 nM
Cc1ncc(-c2ccc(Cl)c(OC(F)F)c2)cc1CN1CCOC1=O [Example 89, 3-[[5-[4-Chloro-3-(difluoromethoxy)phenyl]-2-methyl-3-pyridyl]methyl]oxazolidin-2-one] | 14 nM
Cc1ncc(-c2ccc(F)c(C(F)F)c2)cc1CN1CC2(CCC2)OC1=O [Example 91, 6-[[5-[3-(Difluoromethyl)-4-fluoro-phenyl]-2-methyl-3-pyridyl]methyl]-8-oxa-6-azaspiro[3.4]octan-7-one] | 84 nM
Cc1ncc(-c2ccc(F)c(C(F)F)c2)cc1CN1C[C@@H](C)OC1=O [Example 92, (5R)-3-[[5-[3-(Difluoromethyl)-4-fluoro-phenyl]-2-methyl-3-pyridyl]methyl]-5-methyl-oxazolidin-2-one] | 63 nM
Cc1ncc(-c2ccc(F)c(C(F)F)c2)cc1CN1CC(C)(C)OC1=O [Example 93, 3-[[5-[3-(Difluoromethyl)-4-fluoro-phenyl]-2-methyl-3-pyridyl]methyl]-5,5-dimethyl-oxazolidin-2-one] | 526 nM
Cc1ncc(-c2ccc(F)c(C(F)F)c2)cc1CN1CC2(CC2)OC1=O [Example 96, 5-[[5-[3-(Difluoromethyl)-4-fluoro-phenyl]-2-methyl-3-pyridyl]methyl]-7-oxa-5-azaspiro[2.4]heptan-6-one] | 31 nM
Cc1ncc(-c2ccc(Cl)s2)cc1CN1CCOC1=O [Example 98, 3-[[5-(5-Chloro-2-thienyl)-2-methyl-3-pyridyl]methyl]oxazolidin-2-one] | 187 nM
Cc1ncc(-c2ccc(C(F)(F)F)s2)cc1CN1CCOC1=O [Example 99, 3-[[2-Methyl-5-[5-(trifluoromethyl)-2-thienyl]-3-pyridyl]methyl]oxazolidin-2-one] | 16 nM
Cc1ncc(-c2ccc(C(F)F)s2)cc1CN1CCOC1=O [Example 100, 3-[[5-[5-(Difluoromethyl)-2-thienyl]-2-methyl-3-pyridyl]methyl]oxazolidin-2-one] | 42 nM
COc1ncc(-c2cccc(C(F)(F)F)c2)cc1CN1CCOC1=O [Example 101, 3-[[2-Methoxy-5-[3-(trifluoromethyl)phenyl]-3-pyridyl]methyl]oxazolidin-2-one] | 53 nM
COc1ncc(-c2cc(F)c(F)c(F)c2)cc1CN1CCOC1=O [Example 102, 3-[[2-Methoxy-5-(3,4,5-trifluorophenyl)-3-pyridyl]methyl]oxazolidin-2-one] | 172 nM
COc1ncc(-c2ccc(F)c(C)c2F)cc1CN1CCOC1=O [Example 103, 3-[[5-(2,4-Difluoro-3-methyl-phenyl)-2-methoxy-3-pyridyl]methyl] oxazolidin-2-one] | 46 nM
COc1ncc(-c2cc(C)cc(F)c2)cc1CN1CCOC1=O [Example 104, 3-[[5-(3-Fluoro-5-methyl-phenyl)-2-methoxy-3-pyridyl]methyl]oxazolidin-2-one] | 159 nM
COc1ncc(-c2cccc(C)c2)cc1CN1CCOC1=O [Example 105, 3-[[2-Methoxy-5-(m-tolyl)-3-pyridyl]methyl]oxazolidin-2-one] | 434 nM
COc1ncc(-c2ccc(Cl)c(Cl)c2)cc1CN1CCOC1=O [Example 106, 3-[[5-(3,4-Dichlorophenyl)-2-methoxy-3-pyridyl]methyl]oxazolidin-2-one] | 33 nM
COc1ncc(-c2ccc(Cl)c(OC(F)F)c2)cc1CN1CCOC1=O [Example 107, 3-[[5-[4-Chloro-3-(difluoromethoxy)phenyl]-2-methoxy-3-pyridyl]methyl]oxazolidin-2-one] | 11 nM
COc1ncc(-c2ccc(F)c(Cl)c2)cc1CN1CCOC1=O [Example 108, 3-[[5-(3-Chloro-4-fluoro-phenyl)-2-methoxy-3-pyridyl]methyl]oxazolidin-2-one] | 32 nM
COc1ncc(-c2cccc(Cl)c2)cc1CN1CCOC1=O [Example 109, 3-[[5-(3-Chlorophenyl)-2-methoxy-3-pyridyl]methyl]oxazolidin-2-one] | 477 nM
